Assay results taken from US20240115557A1, “INHIBITORS OF RNA-GUIDED NUCLEASES AND USES THEREOF” (The Brigham and Women's Hospital, Inc., priority 2022, published 2024).

Target: T1, SaCas9 (Staphylococcus aureus, UniProt J7RUA5)
T1 sequence (J7RUA5 1-1053): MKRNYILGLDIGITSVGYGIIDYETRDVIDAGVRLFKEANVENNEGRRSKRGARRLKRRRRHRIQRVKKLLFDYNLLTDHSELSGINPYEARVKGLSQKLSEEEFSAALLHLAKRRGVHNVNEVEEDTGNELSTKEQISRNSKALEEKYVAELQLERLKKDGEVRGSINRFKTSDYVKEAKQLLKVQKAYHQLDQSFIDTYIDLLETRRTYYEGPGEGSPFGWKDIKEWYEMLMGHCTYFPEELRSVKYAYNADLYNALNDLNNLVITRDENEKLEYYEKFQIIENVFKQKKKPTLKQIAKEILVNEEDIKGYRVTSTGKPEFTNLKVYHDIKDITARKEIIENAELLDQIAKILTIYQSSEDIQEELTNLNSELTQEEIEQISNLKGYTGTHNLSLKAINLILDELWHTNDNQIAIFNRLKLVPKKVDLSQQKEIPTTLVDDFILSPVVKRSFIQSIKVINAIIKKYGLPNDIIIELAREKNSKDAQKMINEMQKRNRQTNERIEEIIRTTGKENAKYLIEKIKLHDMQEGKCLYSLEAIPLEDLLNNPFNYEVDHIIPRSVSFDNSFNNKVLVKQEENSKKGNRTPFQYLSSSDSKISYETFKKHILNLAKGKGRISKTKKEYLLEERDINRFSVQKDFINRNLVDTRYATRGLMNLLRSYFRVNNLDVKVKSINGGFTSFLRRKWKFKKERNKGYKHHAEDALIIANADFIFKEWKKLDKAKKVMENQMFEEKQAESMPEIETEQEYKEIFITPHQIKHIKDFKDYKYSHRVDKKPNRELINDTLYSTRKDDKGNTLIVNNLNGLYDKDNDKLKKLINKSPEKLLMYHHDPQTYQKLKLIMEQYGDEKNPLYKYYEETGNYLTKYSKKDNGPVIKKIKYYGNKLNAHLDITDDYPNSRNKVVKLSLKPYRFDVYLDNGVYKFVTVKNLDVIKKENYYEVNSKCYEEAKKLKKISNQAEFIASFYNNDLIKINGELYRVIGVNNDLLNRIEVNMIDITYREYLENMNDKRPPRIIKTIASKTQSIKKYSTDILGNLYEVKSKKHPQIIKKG
Experiment: Strand displacement assay, SaCas9 primary screen
Format: biochemical
Details: for Auto Zscore Rep 1 / Auto Zscore Rep 2 / Normalized Zscore Rep 1 / Normalized Zscore Rep 2: SaCas9 primary screen; for Auto Zscore Rep 1 / Normalized Zscore Rep 1: replicate 1; for Auto Zscore Rep 2 / Normalized Zscore Rep 2: replicate 2; for Normalized Zscore Rep 1 / Normalized Zscore Rep 2: weaker potential hits; for 3 sigma Hit: flag 1 = hit at 3 sigma; for 5 sigma Hit: flag 1 = hit at 5 sigma
Description: An overview of the screening for SaCas9 inhibitors is depicted in FIG. 14. A total of 43,168 Compounds were screened from the ICCB Libraries. Libraries screened for the initial compounds include ChemDiv 7 (34,848 cpds), Enamine 1 (5,280 cpds), ChemDiv1 (1,760 cpds), NIH Clinical Collection (450 cpds), Biomol 4—FDA Approved Library (640 cpds). A hit is determined from the Zscore, with 3-5σ being a weak hit, >5σ being a strong hit. The results of the hits include 193 Weak Hits and 249 Strong Hits. The NIH Clinical Collection 1-2014 was screened for 450 of 450 compounds, with 7 hits—1.5%. The Biomol 4—FDA Approved Library was screened for 640 of 640 compounds, with 8 hits—1.2%. […] Enamine 1 was screened for 5,280 of 6,004 compounds, with 44 hits—0.83%. Libraries are commercially available, with reference numbers utilized for compounds identifying the compound structures used. […]
Generalization of CAA to other Cas nucleases. Applicants sought to generalize CAA to other CRISPR-associated nucleases, including from Staphylococcus aureus (SaCas9). Given the similarities between SaCas9 and SpCas9 modes of DNA-substrate binding and protein folding,^26, 27 Applicants hypothesized that SaCas9-induced strand displacement could be similarly measured. Indeed, fluorescence quenching correlated with substrate cleavage in the CAA assay with active SaCas9:gRNA and an ACGGGT PAM sequence, which was validated with gel electrophoresis (FIG. 62F,G and FIG. 69F).
First, Applicants optimized various components and conditions of the strand displacement assay for Cas enzyme activity and generality with different Cas such as SpCas9 (FIG. 62B) or SaCas9 (FIG. 69F) or FnCas12a (FIG. 70A,B). Typically, SpCas9: gRNA (1:1.2 ratio) RNP was pre-formed at 1 μM in Cas9 assay buffer (20 mM Tris-HCl, pH=7.5, 100 mM KCl, 5 mM MgCl2) for 5 min at 4° C. before diluting to 10 nM in Cas9 assay buffer (2× final concentration). 25 μL of the Cas9 2× stock was manually dispensed to a black 384-well plate (Corning 3575) using electronic pipette. Apo SpCas9 (without guide RNA) was used at the same concentration as a control for no activity (mock inhibition). Following this, pre-annealed Alexa-Fluor 647 labeled substrate and quencher were also diluted to 1 nM and 5 nM in Cas9 assay buffer, respectively (2× stock solution). Next, 25 μL of the substrate/quencher solution was added manually to each well of the Cas9-containing 384-well plates using an electronic pipette and was incubated at 37° C. for 2.5 h. Fluorescent signals were read with the microplate reader set to read Alexa-Fluor 647 fluorescence. Assay was performed similarly with SaCas9 and FnCas12a using the respective enzyme, gRNA, substrate, and quencher oligos. Applicants similarly divulged the effect of PAM sequences of dsDNA on its assay specificity using TGG, TGC, AAC PAM containing substrates for SpCas9 (FIG. 62C), and ACGGGT, ACGGTT, TGCCCA PAM substrate for SaCas9 (FIG. 62F) and TTTC, TTGC, AAAG PAM substrates for FnCpf1 (FIG. 63B-C). Applicants also optimized the effective concentration of DS-AF647 and SS-AF647 fluorophores (FIG. 64A), DS-substrate to SpCas9 RNP ratio (FIG. 64B) and substrate to quencher ratio (FIG. 64C) on assay performance. Similarly, Applicants performed a time course experiment to establish the time required for maximum completion of the reaction at various substrate to SpCas9 RNP ratios (FIG. 64D).

| Structure (SMILES) | Auto Zscore Rep 1 | Auto Zscore Rep 2 | Normalized Zscore Rep 1 | Normalized Zscore Rep 2 | 3 sigma Hit | 5 sigma Hit |
| --- | --- | --- | --- | --- | --- | --- |
| Cc1cccc(Cn2c(SCC(O)CO)nc3c2c(=O)[nH]c(=O)n3C)c1 (stereo not drawn) [Compound D226-0165] | −0.346 | −0.1307 | 0.1224 | 0.1125 | 1 |  |
| COc1ccc(-c2[nH]nc3nc(-c4ccc(O)c(O)c4)cc(C(=O)O)c23)cc1 [Cpd C202-1892] | −1.82 | −0.3926 | 0.4084 | 0.4043 | 1 | 1 |
| c1ccc(CCCNc2nn3nnnc3c3ccccc23)cc1 [Cpd C301-8945] | 0.8868 | 0.9986 | 0.2248 | 0.1621 | 1 |  |
| COc1ccc2cc3c(N)nn(C(=O)c4ccncc4)c3nc2c1 [Cpd C594-0003] | −0.6022 | 0.6643 | 0.2515 | 0.1978 | 1 |  |
| COc1ccc2cc3c(N)nn(C(=O)c4ccc(F)cc4)c3nc2c1 [Cpd C594-0010] | 0.8616 | −0.4814 | 0.1698 | 0.2567 | 1 |  |
| Cn1nc(-c2ccc(Cl)cc2)c2cc(C(=O)O)sc21 [Cpd C660-1021] | 1.316 | 1.188 | 0.2339 | 0.1885 | 1 | 1 |
| Cc1nn2c(=O)cc(COc3ccc(C)c(C)c3)nc2s1 [Cpd C679-2752] | 0.9351 | −0.9427 | 0.5034 | 0.5292 | 1 | 1 |
| Cc1nnc(NC(=O)CSc2ccc3nnc(-c4ccc(F)cc4)n3n2)s1 [Cpd C742-0312] | −0.0443 | −0.6268 | 0.1897 | 0.2665 | 1 |  |
| Cc1nnc(NC(=O)CSc2ccc3nnc(-c4cccc(F)c4)n3n2)s1 [Cpd C742-0431] | −0.06844 | 0.2074 | 0.342 | 0.3107 | 1 | 1 |
| O=C(c1ccccc1)c1cnc2ccc(F)cc2c1S(=O)(=O)c1ccc(F)cc1 [Cpd C770-0245] | 0.1661 | 0.1101 | 0.2065 | 0.1929 | 1 |  |

Second part, the compound after the results:

| Auto Zscore Rep 1 | Auto Zscore Rep 2 | Normalized Zscore Rep 1 | Normalized Zscore Rep 2 | 3 sigma Hit | 5 sigma Hit | Structure (SMILES) |
| --- | --- | --- | --- | --- | --- | --- |
| 0.429 | 0.8302 | 0.3494 | 0.3285 | 1 | 1 | COc1cccc(CNCc2cccn2-c2sc(C)c(C)c2C(=O)O)c1 [Cpd C795-1664] |
| −0.5592 | 0.1026 | 0.2655 | 0.3207 | 1 | 1 | CCSc1nc2c(c(=O)[nH]1)C(c1ccc(O)c(O)c1)CC(=O)N2 (stereo not drawn) [Cpd D271-0002] |
| −1.4647 | −0.1946 | 0.1942 | 0.18 | 1 | 1 | O=C1CC(c2ccc(O)c(O)c2)c2c(nc(SCc3ccccc3)[nH]c2=O)N1 (stereo not drawn) [Cpd D271-0007] |
| −0.4729 | −0.3637 | 0.198 | 0.181 | 1 | 1 | Cc1ccc(CSc2nc3c(c(=O)[nH]2)C(c2ccc(O)c(O)c2)CC(=O)N3)cc1 (stereo not drawn) [Cpd D271-0008] |
| −2.7 | −0.04169 | 0.1797 | 0.2066 | 1 | 1 | O=C1CC(c2ccc(O)c(O)c2)c2c(nc(SCc3ccc(Cl)cc3)[nH]c2=O)N1 (stereo not drawn) [Cpd D271-0011] |
| 0.2548 | 0.7649 | 0.1908 | 0.1893 | 1 | 1 | O=C1CC(c2ccc(O)c(O)c2)c2c(nc(SCc3cccc(Cl)c3)[nH]c2=O)N1 (stereo not drawn) [Cpd D271-0012] |
| 0.0101 | 0.4839 | 0.1526 | 0.1495 | 1 | 1 | CCOC(=O)c1c(NC(=O)CSc2nnc3cc(C)c4cccc(OC)c4n23)sc(C)c1C [Cpd D278-0687] |
| −1.668 | −0.1926 | 0.1601 | 0.1044 | 1 | 1 | Cn1c(=O)c2c(-c3ccccc3)n3c(c2n(C)c1=O)C(c1ccc(O)c(O)c1)Nc1ccccc1-3 (stereo not drawn) [Cpd D359-0009] |
| −0.203 | −0.05734 | 0.3533 | 0.2821 | 1 | 1 | Cc1n[nH]c2c1C(c1ccc(O)c(O)c1)CC(=O)N2 (stereo not drawn) [Cpd D361-0120] |
| 0.4938 | −1.181 | 0.2106 | 0.2618 | 1 | 1 | COc1ccc(C2CC(=O)C3=C(C2)Nc2onc(C)c2C3c2ccc(O)c(O)c2)cc1OC (stereo not drawn) [Cpd D588-0034] |
